Data from patent US7135292B2, “Analysis and modification of gene expression in marine invertebrate cells” (Harbor Branch Oceanographic Institution, Inc., priority 2002, dated 2006).

Tested on: Axinella corrugata cell cultures
Experiment: Human-sequence microarray (Gene Filters) analysis of gene expression, PHA-treated vs untreated sponge cell cultures
Type: cell-based
Description: Sponge Cells. Cells were obtained from cryopreserved stocks at Harbor Branch Oceanographic Institution. All cells were derived from Axinella corrugata specimens collected in the waters of Florida, the Bahamas, and the Caribbean Sea, and were cryopreserved according to Pomponi et al. (Pomponi et al. 1997b supra). This sponge is relatively common and easy to collect, amenable to culture efforts, and produces the bioactive compound, stevensine, in vitro (Pomponi et al. 1997b supra). Enriched fractions of dissociated sponge cells were prepared, cryopreserved, and thawed according to previously published methods (Pomponi et al. 1997b supra). Cells were incubated at 22–25° C. in a growth medium consisting of a modified and supplemented commercial formulation (Willoughby and Pomponi 2000 supra). The length of the incubation period was based on my unpublished observation of elevated DNA and protein contents (9%, P=0.034, and 9%, P=0.038, respectively) in PHA-treated cultures, according to fluorescent assays of 6 replicate comparisons (Willoughby and Pomponi 2000 supra). Since the effects were observed between 6 and 18 hours after treatment, cells were cultured for 12-hour periods representing the center point of the period of observed changes. Two sets of cultures were incubated with approximately 2×10^8 cells per T-75 flask—a control set and an experimental set treated with 1.5% phytohemagglutinin (PHA) (Life Technologies, M-form).
RNA Isolation. RNA isolation was performed on unrinsed, pelleted cells. Pellets were quickly frozen in a dry ice alcohol bath and stored at −70° C. until RNA isolation. The Qiagen RNeasy® protocol was used, with the following modifications. Samples were disrupted with a micropestle or homogenized by the rotor-stator method, using twice the recommended volume of lysis solution. Prior to column loading, samples were centrifuged through a Qiashredder® column to complete homogenization and remove insoluble material. Supernatant was collected for use in the rest of the protocol. During the first wash step, samples were incubated on the column with DNase 1 (Qiagen or Ambion) for 15 minutes. After the final wash, samples were incubated on the column with the RNase free elution water for 15 minutes prior to elution. Sub-samples were diluted 20× and quantified on a Genequant® spectrophotometer.
cDNA Labeling. Sub-samples of the isolated total RNA (8 μl) were primed with oligo dT (10–20 mer) (Research Genetics, Inc.) for 10 minutes at 70° C., then briefly chilled on ice, followed by addition of 2 volumes of RT cocktail based upon the Life Technologies Superscript II® protocol (containing dATP, dGTP, dTTP, and α-^33P dCTP [NEN Easy Tides®, 3000 Ci/mmol]). The mixture was incubated for 90 minutes at 37° C., and diluted to 100 μl for purification on a Bio-Spin column (Boi-Rad) according to the Gene Filter® (Research Genetics, Inc.) recommended protocol. The resultant labeled probes were then denatured for 3 minutes in a boiling water bath prior to incorporation into the hybridization solution.
Microarrays. Research Genetics Gene Filters®, version 211, were employed in this study. These microarrays feature over 4000 distinct sequence-verified genes spotted onto a 5×7 cm nylon membrane. The DNA at each spot represents approximately 1 kb from the 3′ end of the gene. The microarrays also include spots of total genomic DNA (see FIG. 5). The 211 series is constructed from human sequences. A cross-referenced database listing of all the genes represented on the array is available at http://www.resgen.com. The 2 genes referenced in this work carry the I.M.A.G.E. Consortium (Lennon, G. G., C. Auffray, M. Polymeropoulos and M. B. Soares 1996, Genomics 33:151–152), Clone IDs 81408 (calcineurin B) and 858292 (cdc10).
Hybridization. […]

With phytohemagglutinin [PHA] the “Ratio, Small inducible cytokine A11 (eotaxin)” value (No. 56, PHA treated/untreated, 12 h) was 0.493, the “Ratio, Major histocompatibility complex, class II, DR beta 5” value (No. 57, PHA treated/untreated, 12 h) was 0.255 and the “Ratio, Evi-1” value (No. 58, PHA treated/untreated, 12 h) was 0.159. For the same substance, the “Ratio, Homo sapiens thrombospondin 3 (THBS3) gene, complete cds” value (No. 59, PHA treated/untreated, 12 h) was 0.019, the “Ratio, RhoE” value (No. 60, PHA treated/untreated, 12 h) was 0.312 and the “Ratio, Human bone morphogenetic protein-3b” value (No. 61, PHA treated/untreated, 12 h) was 0.209. For the same substance, the “Ratio, Vitamin K-dependent gamma-B74carboxylase” value (No. 62, PHA treated/untreated, 12 h) was 2.101, the “Ratio, Homo sapiens cdc14 homolog mRNA, complete cds” value (No. 63, PHA treated/untreated, 12 h) was 11.905 and the “Ratio, Homo sapiens, alpha-1 (VI) collagen” value (No. 64, PHA treated/untreated, 12 h) was 2.509. For the same substance, the “Ratio, Homo sapiens BAI 3 mRNA, complete cds” value (No. 65, PHA treated/untreated, 12 h) was 3.228, the “Ratio, Human TFIIB related factor hBRF (HBRF) mRNA, complete cds” value (No. 66, PHA treated/untreated, 12 h) was 0.118 and the “Ratio, Human capping protein alpha mRNA, partial cds” value (No. 67, PHA treated/untreated, 12 h) was 2.650. The “Ratio, Human melanocyte-specific gene 1 (msg1) mRNA, complete cds” value (No. 68, PHA treated/untreated, 12 h) was 0.390, the “Ratio, Ras-like protein TC21” value (No. 69, PHA treated/untreated, 12 h) was 2.737 and the “Ratio, Homo sapiens mRNA for inositol 1,4,5-trisphosphate 3-kinase isoenzyme, partial cds” value (No. 70, PHA treated/untreated, 12 h) was 0.494. The “Ratio, Homo sapiens clone 23619 phosphoprotein mRNA, partial cds” value (No. 71, PHA treated/untreated, 12 h) was 0.296, the “Ratio, Human lysosomal glycosylasparaginase (AGA) gene” value (No. 72, PHA treated/untreated, 12 h) was 0.317 and the “Ratio, COUP transcription factor” value (No. 73, PHA treated/untreated, 12 h) was 0.080. For the same substance, the “Ratio, Human mRNA for prepro cortistatin like peptide, complete cds” value (No. 74, PHA treated/untreated, 12 h) was 3.616, the “Ratio, Homo sapiens mRNA for repressor protein, partial cds” value (No. 75, PHA treated/untreated, 12 h) was 0.483 and the “Ratio, N-Terminal acetyltransferase complex ARD1 subunit homolog + B88” value (No. 76, PHA treated/untreated, 12 h) was 0.275. The “Ratio, Human alpha-tubulin isotype H2-alpha gene, last exon” value (No. 77, PHA treated/untreated, 12 h) was 0.264, the “Ratio, Human alpha-cardiac actin gene, 5′ flank and” value (No. 78, PHA treated/untreated, 12 h) was 0.402 and the “Ratio, Homo sapiens MAD-related gene SMAD7 (SMAD7) mRNA, complete cds” value (No. 79, PHA treated/untreated, 12 h) was 3.829. For the same substance, the “Ratio, Human ETS2 oncogene” value (No. 80, PHA treated/untreated, 12 h) was 2.260, the “Ratio, Human mRNA for alpha-catenin, complete cds” value (No. 81, PHA treated/untreated, 12 h) was 0.147 and the “Ratio, Human mRNA for TESK1, complete cds” value (No. 82, PHA treated/untreated, 12 h) was 0.282. The “Ratio, Homo sapiens DnaJ protein (HSPF2) mRNA, complete cds” value (No. 83, PHA treated/untreated, 12 h) was 0.206, the “Ratio, Keratin, type I cytoskeletal 20” value (No. 84, PHA treated/untreated, 12 h) was 0.283 and the “Ratio, Homo sapiens FMRFamide-related prepropeptide mRNA, complete cds” value (No. 85, PHA treated/untreated, 12 h) was 2.156. For the same substance, the “Ratio, H. sapiens mRNA for p40” value (No. 86, PHA treated/untreated, 12 h) was 7.841, the “Ratio, Homo sapiens mRNA for p115, complete cds” value (No. 87, PHA treated/untreated, 12 h) was 0.477 and the “Ratio, Factor VIII intron 22 protein” value (No. 88, PHA treated/untreated, 12 h) was 0.490. For the same substance, the “Ratio, Human RNA polymerase II subunit hsRPB7 mRNA, complete cds” value (No. 89, PHA treated/untreated, 12 h) was 0.441, the “Ratio, Homo sapiens mRNA for osteomodulin, complete cds” value (No. 90, PHA treated/untreated, 12 h) was 0.354 and the “Ratio, Hemoglobin zeta chain” value (No. 91, PHA treated/untreated, 12 h) was 11.817. For the same substance, the “Ratio, Human cartilage-specific homeodomain protein Cart-1 mRNA, complete cds” value (No. 92, PHA treated/untreated, 12 h) was 0.201, the “Ratio, Human cytochrome bc-1 complex core protein II mRNA, complete cds” value (No. 93, PHA treated/untreated, 12 h) was 0.325 and the “Ratio, H. sapiens mRNA for Ndr protein kinase” value (No. 94, PHA treated/untreated, 12 h) was 0.435. The “Ratio, Human HEM45 mRNA, complete cds” value (No. 95, PHA treated/untreated, 12 h) was 0.114, the “Ratio, C-1-tetrahydrofolate synthase, cytoplasmic” value (No. 96, PHA treated/untreated, 12 h) was 2.966 and the “Ratio, Homo sapiens mRNA for transducin (beta) like 1 protein” value (No. 97, PHA treated/untreated, 12 h) was 0.091. The “Ratio, Human Bcl-2 related (Bfl-1) mRNA, complete cds” value (No. 98, PHA treated/untreated, 12 h) was 0.472, the “Ratio, H. sapiens mRNA for InsP3 5-phosphatase” value (No. 99, PHA treated/untreated, 12 h) was 0.215 and the “Ratio, H. sapiens mRNA for 17-beta-hydroxysteroid dehydrogenase” value (No. 100, PHA treated/untreated, 12 h) was 0.432. The “Ratio, Ubiquitin carboxyl-terminal hydrolase isozyme L3” value (No. 101, PHA treated/untreated, 12 h) was 0.388, the “Ratio, Human putative tRNA synthetase-like protein mRNA, complete cds” value (No. 102, PHA treated/untreated, 12 h) was 0.493 and the “Ratio, Human galectin-4 (GAL4) mRNA, complete cds” value (No. 103, PHA treated/untreated, 12 h) was 0.443. The “Ratio, Glycylpeptide N-tetradecanoyl transferase” value (No. 104, PHA treated/untreated, 12 h) was 0.354, the “Ratio, H. sapiens LDLC mRNA” value (No. 105, PHA treated/untreated, 12 h) was 0.395 and the “Ratio, Human CREB-binding protein (CBP) mRNA, complete cds” value (No. 106, PHA treated/untreated, 12 h) was 0.210. The “Ratio, Human enigma gene, complete cds” value (No. 107, PHA treated/untreated, 12 h) was 0.496, the “Ratio, Human FEZ2 mRNA, partial cds” value (No. 108, PHA treated/untreated, 12 h) was 0.283 and the “calcineurin down-regulated by the PHA treatment (microarray)” value (approximately) was 2–5 fold. For the same substance, the “cdc10 up-regulated by the PHA treatment (microarray)” value (approximately) was 2–5 fold.
